From US9295673B2, “Combination of mTOR inhibitors and P13-kinase inhibitors, and uses thereof” (Intellikine LLC, priority 2011, dated 2016)
Read-outs that look alike come from different tables or passages of the source.

Legend:
PI3K α = PI3K α (Homo sapiens, UniProt P42336); assay: PI 3-Kinase (human) HTRF assay, PI3K α
mTOR = molecular target: T1, mTOR (Homo sapiens, UniProt P42345); assay: mTOR kinase inhibition assay (radiometric or LanthaScreen TR-FRET); assay type: biochemical
T1 construct: purchased Invitrogen
Method: The compounds described herein can be tested against recombinant mTOR (Invitrogen) in an assay containing 50 mM HEPES, pH 7.5, 1 mM EGTA, 10 mM MgCl2, 2.5 mM, 0.01% Tween, 10 μM ATP (2.5 μCi of μ-32P-ATP), and 3 mg/mL BSA. Rat recombinant PHAS-1/4EBP1 (Calbiochem; 2 mg/mL) is used as a substrate. Reactions are terminated by spotting onto nitrocellulose, which is washed with 1M NaC1/1% phosphoric acid (approximately 6 times, 5-10 minutes each). Sheets are dried and the transferred radioactivity quantitated by phosphorimaging.
For instance, one can use Invitrogen's LanthaScreen™ Kinase assay to test the inhibitors of mTOR disclosed herein. This assay is a time resolved FRET platform that measures the phosphorylation of GFP labeled 4EBP1 by mTOR kinase. The kinase reaction is performed in a white 384 well microtitre plate. The total reaction volume is 20 ul per well and the reaction buffer composition is 50 mM HEPES pH7.5, 0.01% Polysorbate 20, 1 mM EGTA, 10 mM MnCl2, and 2 mM DTT. In the first step, each well receives 2 ul of test compound in 20% dimethylsulphoxide resulting in a 2% DMSO final concentration. […] The plate is sealed and incubated for 1 hour at room temperature. […] The plate is sealed, incubated for 1 hour at room temperature, and then read on a plate reader set up for LanthaScreen™ TR-FRET. Data is analyzed and IC50s are generated using GraphPad Prism 5.

PI3K β = PI3K β (Homo sapiens, UniProt P42338); assay: PI 3-Kinase (human) HTRF assay, PI3K β
PI3K γ = PI3K γ (Homo sapiens, UniProt P48736); assay: PI 3-Kinase (human) HTRF assay, PI3K γ
PI3K δ = PI3K δ (Homo sapiens, UniProt O00329); assay: PI 3-Kinase (human) HTRF assay, PI3K δ
Method: An exemplary system is PI 3-Kinase (human) HTRF™ Assay from Upstate. […] Briefly, the assay is a time resolved FRET assay that indirectly measures PIP3 product formed by the activity of a PI3-K. The kinase reaction is performed in a microtitre plate (e.g., a 384 well microtitre plate). The total reaction volume is approximately 20 ul per well. In the first step, each well receives 2 ul of test compound in 20% dimethylsulphoxide resulting in a 2% DMSO final concentration. […] The plate is sealed and incubated for 15 minutes at room temperature. […] The plate is sealed and incubated for 1 hour at room temperature. The reaction is stopped by adding 5 ul of Stop Solution per well and then 5 ul of Detection Mix is added per well. The plate is sealed, incubated for 1 hour at room temperature, and then read on an appropriate plate reader. Data is analyzed and IC50s are generated using GraphPad Prism 5.

PC3 = PC3 proliferation (Alamar Blue); assay type: cell-based; details: Homo sapiens, PC-3; for IC50: PC3 cells
Method: For instance, an in vitro cellular proliferation assay can be performed to measure the metabolic activity of live cells. The assay is performed in a 96 well microtiter plate using Alamar Blue reduction. […] A compound disclosed herein is diluted in Tumor Cell Media and added in a 10 ul volume. […] A volume of 10 uL of Alamar Blue reagent is added to each well and plates are incubated for 3 hours at 37 C and 5% CO2.

breast cancer model = assay: Preclinical breast cancer model (tumor weight / volume); assay type: in vivo; details: combined treatment with Compound A and Compound B (FIG. 2)
NRDG1 phosphorylation = assay: Western blot of NRDG1 phosphorylation; assay type: cell-based; details: western blot (FIG. 5B)
[1] = test system: Akt, S6, 4EBP phosphorylation; assay: Western blot of PI3K pathway phosphorylation (Akt, S6, 4EBP); assay type: cell-based
[2] = test system: pAKT(S473), pAKT(T308) in PC3 cells; assay: Western blot of Akt phosphorylation (pAKT) in PC3 cells; assay type: cell-based; details: PC3 model, FIG. 7
Method: Cells comprising one or more mutations in PI3Kα, including but not limited to breast cancer cells (e.g., MDA-MB-361, T47D, SKOV-3), and cells comprising one or more mutations in PTEN including but not limited to prostate cancer cells (e.g., PC3), are typically grown in cell growth media such as DMEM supplemented with fetal bovine serum and/or antibiotics, and grown to confluency. Cells are then treated with various concentrations of test compound for about 2 hours and subsequently lysed in cell lysis buffer. Lysates are subjected to SDS-PAGE followed by Western blot analysis to detect downstream signaling markers, including but not limited to pAKT(S473), pAKT(T308), pS6, and p4E-BP1.

[3] = test system: mTORC1 and mTORC2 in 786-O cells; assay: Western blot of pNDRG1 in 786-O cells (mTOR pathways); assay type: cell-based, human; details: FIG. 5
Excerpt: Cells were subsequently lysed and lysates were subjected to SDS-PAGE followed by Western blot analysis to detect the downstream pathway marker, pNDRG1.

[4] = test system: 786-O human kidney carcinoma tumors; assay: In vivo efficacy in 786-O xenograft model; design: species or system nude mice; details: oral, FIG. 6
[5] = read-out: PI3K γ IC50, in vitro

Sequence of PI3K δ (O00329 whole entry): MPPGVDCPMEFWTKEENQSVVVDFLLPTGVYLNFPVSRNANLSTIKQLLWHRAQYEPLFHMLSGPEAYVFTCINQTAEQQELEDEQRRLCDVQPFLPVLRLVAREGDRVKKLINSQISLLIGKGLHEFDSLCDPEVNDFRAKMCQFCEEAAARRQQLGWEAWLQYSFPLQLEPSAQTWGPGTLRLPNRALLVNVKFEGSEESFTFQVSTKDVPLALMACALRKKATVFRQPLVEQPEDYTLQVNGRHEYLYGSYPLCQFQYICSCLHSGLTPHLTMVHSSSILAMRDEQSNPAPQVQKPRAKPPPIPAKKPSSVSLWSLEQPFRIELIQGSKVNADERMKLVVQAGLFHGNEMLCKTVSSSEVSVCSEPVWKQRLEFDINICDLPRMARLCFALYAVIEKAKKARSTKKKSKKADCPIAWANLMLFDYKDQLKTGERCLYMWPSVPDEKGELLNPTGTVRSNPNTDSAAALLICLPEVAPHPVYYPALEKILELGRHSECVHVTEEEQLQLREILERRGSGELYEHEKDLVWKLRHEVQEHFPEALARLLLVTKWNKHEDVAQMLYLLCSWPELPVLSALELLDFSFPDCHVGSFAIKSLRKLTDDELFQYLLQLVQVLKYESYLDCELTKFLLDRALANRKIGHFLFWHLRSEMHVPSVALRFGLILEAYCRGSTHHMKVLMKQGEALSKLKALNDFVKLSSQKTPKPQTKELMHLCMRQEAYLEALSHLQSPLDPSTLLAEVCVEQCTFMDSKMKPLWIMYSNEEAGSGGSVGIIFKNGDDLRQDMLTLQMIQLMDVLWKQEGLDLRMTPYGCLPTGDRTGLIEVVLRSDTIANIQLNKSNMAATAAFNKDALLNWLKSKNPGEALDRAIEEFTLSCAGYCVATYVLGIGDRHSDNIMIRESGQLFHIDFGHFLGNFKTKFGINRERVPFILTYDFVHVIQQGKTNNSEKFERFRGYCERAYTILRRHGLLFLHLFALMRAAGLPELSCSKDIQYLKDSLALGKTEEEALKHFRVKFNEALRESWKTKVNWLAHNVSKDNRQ
Sequence of PI3K δ (P27986 whole entry partner): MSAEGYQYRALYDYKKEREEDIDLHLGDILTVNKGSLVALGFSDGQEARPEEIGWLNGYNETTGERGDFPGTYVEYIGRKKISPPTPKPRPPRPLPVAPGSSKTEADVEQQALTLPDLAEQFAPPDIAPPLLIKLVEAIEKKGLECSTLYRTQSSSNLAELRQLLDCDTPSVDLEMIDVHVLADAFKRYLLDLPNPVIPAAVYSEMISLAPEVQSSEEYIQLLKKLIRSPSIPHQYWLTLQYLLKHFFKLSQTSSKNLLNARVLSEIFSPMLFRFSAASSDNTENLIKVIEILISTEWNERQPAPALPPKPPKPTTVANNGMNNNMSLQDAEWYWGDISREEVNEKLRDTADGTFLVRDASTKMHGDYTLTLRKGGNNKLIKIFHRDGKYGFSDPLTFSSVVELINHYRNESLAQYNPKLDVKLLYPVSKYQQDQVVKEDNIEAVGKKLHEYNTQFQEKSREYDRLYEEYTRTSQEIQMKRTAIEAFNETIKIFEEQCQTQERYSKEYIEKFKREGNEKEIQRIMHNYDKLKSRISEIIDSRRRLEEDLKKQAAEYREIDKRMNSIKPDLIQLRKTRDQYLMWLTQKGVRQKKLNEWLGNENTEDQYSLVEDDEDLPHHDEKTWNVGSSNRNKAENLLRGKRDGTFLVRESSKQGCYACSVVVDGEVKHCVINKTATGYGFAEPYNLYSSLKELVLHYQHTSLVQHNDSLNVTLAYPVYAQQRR
Sequence of PI3K γ (P48736 whole entry): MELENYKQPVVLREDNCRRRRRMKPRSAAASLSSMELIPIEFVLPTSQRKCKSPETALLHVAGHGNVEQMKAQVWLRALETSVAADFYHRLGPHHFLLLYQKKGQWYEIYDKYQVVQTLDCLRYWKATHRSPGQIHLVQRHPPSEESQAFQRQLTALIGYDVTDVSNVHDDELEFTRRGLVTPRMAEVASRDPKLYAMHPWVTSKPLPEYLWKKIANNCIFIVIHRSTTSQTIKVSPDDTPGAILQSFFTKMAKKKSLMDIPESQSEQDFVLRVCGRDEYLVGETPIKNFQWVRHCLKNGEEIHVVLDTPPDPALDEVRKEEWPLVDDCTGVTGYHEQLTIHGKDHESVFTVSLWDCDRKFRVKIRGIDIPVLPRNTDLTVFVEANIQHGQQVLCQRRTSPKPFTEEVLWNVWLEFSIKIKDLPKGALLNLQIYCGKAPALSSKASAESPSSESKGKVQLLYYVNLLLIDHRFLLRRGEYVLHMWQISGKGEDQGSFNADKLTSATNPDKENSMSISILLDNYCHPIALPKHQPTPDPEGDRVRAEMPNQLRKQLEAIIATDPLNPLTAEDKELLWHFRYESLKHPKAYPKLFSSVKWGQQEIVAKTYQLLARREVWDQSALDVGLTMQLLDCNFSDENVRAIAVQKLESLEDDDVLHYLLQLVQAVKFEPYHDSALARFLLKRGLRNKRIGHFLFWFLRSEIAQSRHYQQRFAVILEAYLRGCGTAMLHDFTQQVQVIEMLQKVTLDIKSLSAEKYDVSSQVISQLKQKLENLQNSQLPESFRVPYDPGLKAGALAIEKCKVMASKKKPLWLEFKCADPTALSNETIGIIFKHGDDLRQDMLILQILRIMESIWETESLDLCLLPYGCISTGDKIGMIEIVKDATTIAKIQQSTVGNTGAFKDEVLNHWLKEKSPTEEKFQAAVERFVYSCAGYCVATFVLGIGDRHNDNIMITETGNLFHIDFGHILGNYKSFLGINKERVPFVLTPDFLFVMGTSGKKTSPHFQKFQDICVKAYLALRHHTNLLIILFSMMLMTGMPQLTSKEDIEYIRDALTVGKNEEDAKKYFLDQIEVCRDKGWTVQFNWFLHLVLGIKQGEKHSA
T1 sequence (P42345 1360-2549 limits assumed): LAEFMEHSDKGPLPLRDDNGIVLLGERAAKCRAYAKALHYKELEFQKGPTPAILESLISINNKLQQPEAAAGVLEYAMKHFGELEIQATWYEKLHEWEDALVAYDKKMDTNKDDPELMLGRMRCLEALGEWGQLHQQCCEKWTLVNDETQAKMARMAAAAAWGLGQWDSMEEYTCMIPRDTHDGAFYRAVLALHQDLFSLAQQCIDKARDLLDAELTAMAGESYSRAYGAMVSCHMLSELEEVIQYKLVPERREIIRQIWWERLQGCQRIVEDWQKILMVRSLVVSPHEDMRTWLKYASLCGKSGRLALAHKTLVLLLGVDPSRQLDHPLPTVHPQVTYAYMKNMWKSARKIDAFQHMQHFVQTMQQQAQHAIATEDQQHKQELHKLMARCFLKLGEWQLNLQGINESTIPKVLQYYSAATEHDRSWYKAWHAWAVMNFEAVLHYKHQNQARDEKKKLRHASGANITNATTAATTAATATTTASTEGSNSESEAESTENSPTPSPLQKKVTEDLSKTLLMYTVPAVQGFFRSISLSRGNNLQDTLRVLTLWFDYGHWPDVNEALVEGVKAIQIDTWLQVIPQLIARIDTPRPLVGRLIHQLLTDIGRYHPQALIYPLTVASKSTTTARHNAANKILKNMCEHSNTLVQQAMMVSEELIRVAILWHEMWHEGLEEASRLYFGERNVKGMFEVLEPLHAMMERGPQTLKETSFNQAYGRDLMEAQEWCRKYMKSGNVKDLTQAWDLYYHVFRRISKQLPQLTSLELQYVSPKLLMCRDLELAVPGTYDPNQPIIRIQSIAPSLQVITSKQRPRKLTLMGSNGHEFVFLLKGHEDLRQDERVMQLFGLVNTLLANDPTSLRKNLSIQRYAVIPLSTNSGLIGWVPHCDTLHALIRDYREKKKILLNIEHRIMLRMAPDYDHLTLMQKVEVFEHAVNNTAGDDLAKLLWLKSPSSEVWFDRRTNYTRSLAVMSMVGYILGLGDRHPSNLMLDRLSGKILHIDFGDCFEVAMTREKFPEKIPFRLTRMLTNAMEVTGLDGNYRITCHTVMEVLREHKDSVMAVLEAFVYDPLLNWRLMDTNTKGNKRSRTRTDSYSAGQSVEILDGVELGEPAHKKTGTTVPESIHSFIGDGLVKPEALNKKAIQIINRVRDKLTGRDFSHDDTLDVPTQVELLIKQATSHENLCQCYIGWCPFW

## C=Cc1oc(NC(C)=O)nc1/C=C/c1nn(C)c2ncnc(N)c12 [Compound 2]
PI3K α
  IC50: < 10000 nM
mTOR; Table 1, read-out: mTOR IC50
  IC50: < 100 nM
PI3K β
  IC50: > 10000 nM
PI3K γ
  IC50: < 1000 nM
PI3K δ
  IC50: < 1000 nM
PC3; Table 1
  EC50: < 1000 nM

## COc1cccc2cc(-c3nn(C4CCN(C(=O)C5CC5)CC4)c4ncnc(N)c34)[nH]c12 [Compound 66]
PI3K α; read-out: PI3K α IC50, Table 2
  IC50: > 500 nM
mTOR; Table 2, read-out: mTORC IC50
  IC50: > 500 nM
PI3K β; read-out: PI3K β IC50, Table 2
  IC50: > 500 nM
PI3K γ; read-out: PI3K γ IC50, Table 2
  IC50: > 500 nM
PI3K δ; read-out: PI3K δ IC50
  IC50: > 500 nM

## COc1cc(Cl)c2[nH]c(-c3nn(C4CCOCC4)c4ncnc(N)c34)cc2c1 [Compound 67]
PI3K α; read-out: PI3K α IC50, Table 2
  IC50: > 500 nM
mTOR; Table 2, read-out: mTORC IC50
  IC50: > 500 nM
PI3K β; read-out: PI3K β IC50, Table 2
  IC50: > 500 nM
PI3K γ; read-out: PI3K γ IC50, Table 2
  IC50: > 500 nM
PI3K δ; read-out: PI3K δ IC50, Table 2
  IC50: > 500 nM

## Nc1ncnc2c1c(-c1cc3cc(O)cc(Cl)c3[nH]1)nn2C1CCOCC1 [Compound 68]
PI3K α; read-out: PI3K α IC50, Table 2
  IC50: 100 to 500 nM
mTOR; Table 2, read-out: mTORC IC50
  IC50: < 5 nM
PI3K β; read-out: PI3K β IC50, Table 2
  IC50: > 500 nM
PI3K γ; read-out: PI3K γ IC50, Table 2
  IC50: 25 to 50 nM
PI3K δ; read-out: PI3K δ IC50
  IC50: 10 to 25 nM

## CC(=O)N1CCC(n2nc(-c3cc4c(Cl)ccc(O)c4[nH]3)c3c(N)ncnc32)CC1 [Compound 69]
PI3K α; read-out: PI3K α IC50, Table 2
  IC50: > 500 nM
mTOR; Table 2, read-out: mTORC IC50
  IC50: < 5 nM
PI3K β; read-out: PI3K β IC50, Table 2
  IC50: > 500 nM
PI3K γ; read-out: PI3K γ IC50, Table 2
  IC50: > 500 nM
PI3K δ; read-out: PI3K δ IC50
  IC50: 100 to 500 nM

## CC(=O)N1CCC(n2nc(-c3cc4cc(O)cc(Cl)c4[nH]3)c3c(N)ncnc32)CC1 [Compound 70]
PI3K α; read-out: PI3K α IC50, Table 2
  IC50: 100 to 500 nM
mTOR; Table 2, read-out: mTORC IC50
  IC50: < 5 nM
PI3K β; read-out: PI3K β IC50, Table 2
  IC50: > 500 nM
PI3K γ; read-out: PI3K γ IC50, Table 2
  IC50: 50 to 100 nM
PI3K δ; read-out: PI3K δ IC50, Table 2
  IC50: 10 to 25 nM

## CC(C)N1CCC(n2nc(-c3cc4c(Cl)ccc(O)c4[nH]3)c3c(N)ncnc32)CC1 [Compound 71]
PI3K α; read-out: PI3K α IC50, Table 2
  IC50: > 500 nM
mTOR; Table 2, read-out: mTORC IC50
  IC50: < 100 nM
PI3K β; read-out: PI3K β IC50, Table 2
  IC50: > 500 nM
PI3K γ; read-out: PI3K γ IC50, Table 2
  IC50: > 500 nM
PI3K δ; read-out: PI3K δ IC50
  IC50: > 500 nM

## CC(=O)Nc1nc2ccc(-c3ccc4oc(N)nc4c3)cc2s1 [Compound 231]
PI3K α; read-out: PI3K α IC50
  IC50: < 100 nM
mTOR; read-out: mTORC IC50
  IC50: < 10000 nM
PI3K β; read-out: PI3K β IC50
  IC50: < 1000 nM
PI3K γ; read-out: PI3K γ IC50
  IC50: < 100 nM
PI3K δ; read-out: PI3K δ IC50
  IC50: < 100 nM

## O=C(c1cnc2ccc(-c3cnc(Cl)c(NS(=O)(=O)c4ccccc4)c3)cn12)N1CCOCC1 [Compound 451]
PC3
  IC50: < 1000 nM

## O=C(c1cnc2ccc(-c3cnc(Cl)c(NS(=O)(=O)c4ccccc4F)c3)cn12)N1CCOCC1 [Compound 452]
PC3
  IC50: < 10000 nM

## O=C(c1cnc2ccc(-c3cnc(Cl)c(NS(=O)(=O)c4ccc(F)cc4)c3)cn12)N1CCOCC1 [Compound 457]
PC3
  IC50: < 1000 nM

## O=C(c1cnc2ccc(-c3cnc(Cl)c(NS(=O)(=O)c4cccc(F)c4)c3)cn12)N1CCOCC1 [Compound 458]
PC3
  IC50: < 1000 nM

## COc1ncc(-c2ccc3ncc(C(=O)N4CCOCC4)n3c2)cc1NS(=O)(=O)c1cccnc1 [Compound 462]
PC3
  IC50: < 1000 nM

## CO[C@@H]1CCN(C(=O)c2cnc3ccc(-c4ccc5oc(N)nc5c4)cn23)C1 [Compound 464]
PC3
  IC50: < 10000 nM

## COC1CN(C(=O)c2cnc3ccc(-c4ccc5oc(N)nc5c4)cn23)C1 [Compound 467]
PC3
  IC50: < 1000 nM

## Nc1nc2cc(-c3ccc4ncc(C(=O)N5CC(N6CC[C@H](O)C6)C5)n4c3)ccc2o1 [Compound 469]
PC3
  IC50: < 10000 nM

## Nc1nc2cc(-c3ccc4ncc(C(=O)N5CC(N6CC[C@@H](O)C6)C5)n4c3)ccc2o1 [Compound 470]
PI3K δ; read-out: PI3K δ IC50, in vitro
  IC50: < 10000 nM
PC3
  IC50: < 10000 nM

## Nc1nc2cc(-c3ccc4ncc(C(=O)N5CCC(F)(F)C5)n4c3)ccc2o1 [Compound 471]
PC3
  IC50: < 10000 nM

## CN(C(=O)c1cnc2ccc(-c3ccc4oc(N)nc4c3)cn12)C1CCOCC1 [Compound 472]
PC3
  IC50: < 10000 nM

## Nc1nc2cc(-c3ccc4ncc(C(=O)N5CC(F)(F)C5)n4c3)ccc2o1 [Compound 473]
PC3
  IC50: < 1000 nM

## Nc1nc2cc(-c3ccc4ncc(C(=O)N5CC[C@H](n6cccn6)C5)n4c3)ccc2o1 [Compound 478]
PC3
  IC50: < 1000 nM

## Nc1nc2cc(-c3ccc4ncc(C(=O)N5C6CCC5COC6)n4c3)ccc2o1 [Compound 480]
PC3
  IC50: < 1000 nM

## C[C@H]1COCCN1C(=O)c1cnc2ccc(-c3ccc4oc(N)nc4c3)cn12 [Compound 483]
PC3
  IC50: < 10000 nM

## C[C@@H]1CN(C2CN(C(=O)c3cnc4ccc(-c5ccc6oc(N)nc6c5)cn34)C2)CCN1C [Compound 508]
PC3
  IC50: < 1000 nM

## C[C@H]1CN(C2CN(C(=O)c3cnc4ccc(-c5ccc6oc(N)nc6c5)cn34)C2)CCN1 [Compound 510]
PC3
  IC50: < 10000 nM

## C[C@@H]1CN(C2CN(C(=O)c3cnc4ccc(-c5ccc6oc(N)nc6c5)cn34)C2)CCN1 [Compound 511]
PI3K γ; [5]
  IC50: < 10000 nM
PC3
  IC50: < 10000 nM

## C[C@H]1CN(C2CN(C(=O)c3cnc4ccc(-c5ccc6oc(N)nc6c5)cn34)C2)CCN1C [Compound 512]
PI3K γ; [5]
  IC50: < 10000 nM
PC3
  IC50: < 1000 nM

## CC1(C)CN(C2CN(C(=O)c3cnc4ccc(-c5ccc6oc(N)nc6c5)cn34)C2)CCN1 [Compound 515]
PC3
  IC50: < 1000 nM

## COc1ncc(-c2ccc3ncn(C4CCN(C(C)C)CC4)c(=O)c3c2)cc1NS(=O)(=O)c1ccccc1 [Compound 522]
PC3
  IC50: < 1000 nM

## CC(C)N1CCC(n2cnc3ccc(-c4cnc(Cl)c(NS(C)(=O)=O)c4)cc3c2=O)CC1 [Compound 523]
PC3
  IC50: < 10000 nM

## COc1ncc(-c2ccc3ncn(C4CCN(C)CC4)c(=O)c3c2)cc1NS(=O)(=O)c1ccccc1 [Compound 524]
PC3
  IC50: < 1000 nM

## CN1CCC(n2cnc3ccc(-c4cnc(Cl)c(NS(C)(=O)=O)c4)cc3c2=O)CC1 [Compound 526]
PC3
  IC50: < 10000 nM

## Nc1nc2cc(-c3ccc4ncc(N5C6CCC5COC6)nc4n3)ccc2o1 [Compound 570]
PI3K α; read-out: PI3K α IC50, Table 4
  IC50: < 100 nM
mTOR; Table 4, read-out: mTORC IC50
  IC50: > 10000 nM
PI3K β; read-out: PI3K β IC50, Table 4
  IC50: > 10000 nM
PI3K γ; read-out: PI3K γ IC50, Table 4
  IC50: < 100 nM
PI3K δ; read-out: PI3K δ IC50
  IC50: > 10000 nM

## CN1CC2CN(c3cnc4ccc(-c5ccc6oc(N)nc6c5)nc4n3)CC2C1 (stereo not shown) [Compound 629]
PI3K α; read-out: PI3K α IC50, Table 4
  IC50: < 100 nM
mTOR; Table 4, read-out: mTORC IC50
  IC50: > 10000 nM
PI3K β; read-out: PI3K β IC50, Table 4
  IC50: < 1000 nM
PI3K γ; read-out: PI3K γ IC50, Table 4
  IC50: < 10000 nM
PI3K δ; read-out: PI3K δ IC50, Table 4
  IC50: < 1000 nM

## CN1CC2CN(c3cnc4ccc(-c5ccc6oc(N)nc6c5)nc4c3)CC2C1 (stereo not shown) [Compound 630]
PI3K α; read-out: PI3K α IC50, Table 4
  IC50: < 100 nM
mTOR; Table 4, read-out: mTORC IC50
  IC50: > 10000 nM
PI3K β; read-out: PI3K β IC50, Table 4
  IC50: < 1000 nM
PI3K γ; read-out: PI3K γ IC50, Table 4
  IC50: < 1000 nM
PI3K δ; read-out: PI3K δ IC50, Table 4
  IC50: < 1000 nM

## CC(C)n1nc(-c2ccc3oc(N)nc3c2)c2c(N)ncnc21 [Compound B]
Breast cancer model
  tumor weight in a preclinical breast cancer model: synergistic effect
NRDG1 phosphorylation
  mTORC1-dependent NRDG1 phosphorylation: sensitivity
[1]; PTEN mutant cells, western blot (FIG. 6B)
  inhibition of Akt, S6, and 4EBP phosphorylation: selective inhibition
[1]; combined treatment with Compound A and Compound B, western blot (FIG. 3)
  downregulating Akt and S6 phosphorylation: synergistic effect
[1]; western blot (FIG. 7)
  inhibition of Akt phosphorylation at serine 473 over threonine 308: differential inhibition
[2]
  inhibition of Akt phosphorylation, serine 473 versus threonine 308: differential inhibition of Akt phosphorylation at serine 473 over threonine 308
[3]
  effects on mTORC1 and mTORC2 (pNDRG1): differential effects on mTORC1 and mTORC2
[4]
  inhibition of kinase activity (downstream markers) and tumor growth: effective at inhibiting kinase activity
